Data: patent publication US20240358692A1, “TREATMENT OF SCLERODERMA” (Aisa Pharma, Inc., priority 2023, published 2024)

System: participants with SSc-RP
Assay: Frequency of weekly RP attacks (all attacks; primary endpoint), patient diary
Format: in vivo, human
Conditions: for Weekly RP Attacks (All Attacks) Change from Baseline, Mean / Weekly RP Attacks (All Attacks) Change from Baseline, Median / Weekly RP Attacks (All Attacks) Percent Change from Baseline, Mean / Weekly RP Attacks (All Attacks) Percent Change from Baseline, Median / Weekly RP Attacks (All Attacks), Mean / Weekly RP Attacks (All Attacks), Median: ITT Part A
Description: Percent change from baseline evaluation for frequency of weekly RP attacks were or will be used as the primary efficacy variable. The sponsor-developed participant-informed diary will be used to record data. Frequency of weekly RP attacks is defined as the total number of RP attacks divided by the number of days with available diary data within the last 7 days of each dosing period then multiplied by 7. Total number of RP attacks during the last 7 days of screening period divided by the number of days with available data then multiplied by 7 will be used as baseline for the analysis of all periods. The variable will be calculated as follows: […]
Percent change from baseline evaluation for frequency of weekly RP attacks was and will be the primary efficacy endpoint. Frequency of weekly RP attacks is defined as the total number of RP attacks divided by the number of days with available diary data within the last 7 days of each dosing period then multiplied by 7. Total number of RP attacks during the last 7 days of screening period divided by the number of days with available data then multiplied by 7 will be used as baseline for the analysis of all periods.

[1] = Cilnidipine 10 mg, Baseline RCS stratum 1 (upper half of table)
[2] = Cilnidipine 10 mg, Excluding Outliers, Baseline RCS stratum 1 (upper half of table)
[3] = Cilnidipine 20 mg, Baseline RCS stratum 1 (upper half of table)
[4] = Cilnidipine 20 mg, Excluding Outliers, Baseline RCS stratum 1 (upper half of table)
[5] = Pooled Cilnidipine 10 mg and Cilnidipine 10 mg + Tadalafil 5 mg, Baseline RCS stratum 2 (lower half of table)
[6] = Pooled Cilnidipine 10 mg and Cilnidipine 10 mg + Tadalafil 5 mg, Excluding Outliers, Baseline RCS stratum 1 (upper half of table)
[7] = Pooled Cilnidipine 10 mg and Cilnidipine 10 mg + Tadalafil 5 mg, Excluding Outliers, Baseline RCS stratum 2 (lower half of table)
[8] = Pooled Cilnidipine 10 mg and Cilnidipine 10 mg + Tadalafil 5 mg, n=3, excluding outliers, last 7 days of dosing
[9] = Pooled Cilnidipine 10 mg and Cilnidipine 10 mg + Tadalafil 5 mg, n=3, last 7 days of dosing
[10] = Pooled Cilnidipine 20 mg and Cilnidipine 20 mg + Tadalafil 5 mg, Baseline RCS stratum 1 (upper half of table)
[11] = Pooled Cilnidipine 20 mg and Cilnidipine 20 mg + Tadalafil 5 mg, Excluding Outliers, Baseline RCS stratum 1 (upper half of table)
[12] = Pooled Cilnidipine 20 mg and Cilnidipine 20 mg + Tadalafil 5 mg, Excluding Outliers, Baseline RCS stratum 2 (lower half of table)
[13] = Pooled Cilnidipine 20 mg and Cilnidipine 20 mg + Tadalafil 5 mg, n=4, excluding outliers, last 7 days of dosing
[14] = Pooled Cilnidipine 20 mg and Cilnidipine 20 mg + Tadalafil 5 mg, n=4, last 7 days of dosing
[15] = Pooled Cilnidipine arms, n=3, excluding outliers, last 7 days of dosing
[16] = Pooled Cilnidipine arms, n=3, last 7 days of dosing
[17] = Pooled Cilnidipine, Baseline RCS stratum 1 (upper half of table)
[18] = Pooled Cilnidipine, Excluding Outliers, Baseline RCS stratum 1 (upper half of table)
[19] = cilnidipine 10 mg daily, n=1, excluding outliers, last 7 days of dosing

COCCOC(=O)C1=C(C)NC(C)=C(C(=O)OC/C=C/c2ccccc2)C1c1cccc([N+](=O)[O-])c1 (centres unmarked) [Cilnidipine]
−5.78: Weekly RP Attacks (All Attacks) Change from Baseline, Mean [11]
−39.85%: Weekly RP Attacks (All Attacks) Percent Change from Baseline, Mean [15] | Weekly RP Attacks (All Attacks) Percent Change from Baseline, Mean [17] | Weekly RP Attacks (All Attacks) Percent Change from Baseline, Mean [18]
10.50: Weekly RP Attacks (All Attacks), Mean [13] | Weekly RP Attacks (All Attacks), Mean [14]
6.00: Weekly RP Attacks (All Attacks), Median [5] | Weekly RP Attacks (All Attacks), Mean [7] | Weekly RP Attacks (All Attacks), Median [7] | Weekly RP Attacks (All Attacks), Median [8] | Weekly RP Attacks (All Attacks), Median [9]
10.33: Weekly RP Attacks (All Attacks), Mean [11]
−9.00: Weekly RP Attacks (All Attacks) Change from Baseline, Mean [1] | Weekly RP Attacks (All Attacks) Change from Baseline, Median [1] | Weekly RP Attacks (All Attacks) Change from Baseline, Mean [2] | Weekly RP Attacks (All Attacks) Change from Baseline, Median [2] | Weekly RP Attacks (All Attacks) Change from Baseline, Median [15] | Weekly RP Attacks (All Attacks) Change from Baseline, Median [16] | Weekly RP Attacks (All Attacks) Change from Baseline, Median [17] | Weekly RP Attacks (All Attacks) Change from Baseline, Median [18] | Weekly RP Attacks (All Attacks) Change from Baseline, Mean [19] | Weekly RP Attacks (All Attacks) Change from Baseline, Median [19]
−37.49%: Weekly RP Attacks (All Attacks) Percent Change from Baseline, Mean [11]
−14.29%: Weekly RP Attacks (All Attacks) Percent Change from Baseline, Mean [12] | Weekly RP Attacks (All Attacks) Percent Change from Baseline, Median [12]
−4.79: Weekly RP Attacks (All Attacks) Change from Baseline, Mean [13] | Weekly RP Attacks (All Attacks) Change from Baseline, Mean [14]
−45.71%: Weekly RP Attacks (All Attacks) Percent Change from Baseline, Mean [3] | Weekly RP Attacks (All Attacks) Percent Change from Baseline, Median [3] | Weekly RP Attacks (All Attacks) Percent Change from Baseline, Mean [4] | Weekly RP Attacks (All Attacks) Percent Change from Baseline, Median [4]
−5.00: Weekly RP Attacks (All Attacks) Change from Baseline, Median [5] | Weekly RP Attacks (All Attacks) Change from Baseline, Mean [7] | Weekly RP Attacks (All Attacks) Change from Baseline, Median [7] | Weekly RP Attacks (All Attacks) Change from Baseline, Median [8] | Weekly RP Attacks (All Attacks) Change from Baseline, Median [9]
−36.28%: Weekly RP Attacks (All Attacks) Percent Change from Baseline, Mean [6] | Weekly RP Attacks (All Attacks) Percent Change from Baseline, Median [6]
−31.69%: Weekly RP Attacks (All Attacks) Percent Change from Baseline, Mean [13] | Weekly RP Attacks (All Attacks) Percent Change from Baseline, Mean [14]
−44.44%: Weekly RP Attacks (All Attacks) Percent Change from Baseline, Median [8] | Weekly RP Attacks (All Attacks) Percent Change from Baseline, Median [9]
−1.83: Weekly RP Attacks (All Attacks) Change from Baseline, Mean [12] | Weekly RP Attacks (All Attacks) Change from Baseline, Median [12]
−39.34%: Weekly RP Attacks (All Attacks) Percent Change from Baseline, Mean [8] | Weekly RP Attacks (All Attacks) Percent Change from Baseline, Mean [9]
−6.00: Weekly RP Attacks (All Attacks) Change from Baseline, Mean [8] | Weekly RP Attacks (All Attacks) Change from Baseline, Mean [9]
−6.67: Weekly RP Attacks (All Attacks) Change from Baseline, Mean [3] | Weekly RP Attacks (All Attacks) Change from Baseline, Median [3] | Weekly RP Attacks (All Attacks) Change from Baseline, Mean [4] | Weekly RP Attacks (All Attacks) Change from Baseline, Median [4]
11.33: Weekly RP Attacks (All Attacks), Mean [8] | Weekly RP Attacks (All Attacks), Mean [9]
−43%: Weekly attack frequency (change) (Cilnidipine 20 mg (n = 3))
−45.00%: Weekly RP Attacks (All Attacks) Percent Change from Baseline, Median [10] | Weekly RP Attacks (All Attacks) Percent Change from Baseline, Median [11] | Weekly RP Attacks (All Attacks) Percent Change from Baseline, Median [15] | Weekly RP Attacks (All Attacks) Percent Change from Baseline, Median [16] | Weekly RP Attacks (All Attacks) Percent Change from Baseline, Median [17] | Weekly RP Attacks (All Attacks) Percent Change from Baseline, Median [18]
−28.13%: Weekly RP Attacks (All Attacks) Percent Change from Baseline, Mean [1] | Weekly RP Attacks (All Attacks) Percent Change from Baseline, Median [1] | Weekly RP Attacks (All Attacks) Percent Change from Baseline, Mean [2] | Weekly RP Attacks (All Attacks) Percent Change from Baseline, Median [2]
−41%: Weekly attack frequency (change) (Pooled Cilnidipine (n = 7))
8.00: Weekly RP Attacks (All Attacks), Mean [3] | Weekly RP Attacks (All Attacks), Median [3] | Weekly RP Attacks (All Attacks), Mean [4] | Weekly RP Attacks (All Attacks), Median [4]
−7.44: Weekly RP Attacks (All Attacks) Change from Baseline, Mean [15] | Weekly RP Attacks (All Attacks) Change from Baseline, Mean [17] | Weekly RP Attacks (All Attacks) Change from Baseline, Mean [18]
23.00: Weekly RP Attacks (All Attacks), Mean [1] | Weekly RP Attacks (All Attacks), Median [1] | Weekly RP Attacks (All Attacks), Mean [2] | Weekly RP Attacks (All Attacks), Median [2] | Weekly RP Attacks (All Attacks), Mean [19] | Weekly RP Attacks (All Attacks), Median [19]
−4.17: Weekly RP Attacks (All Attacks) Change from Baseline, Median [13] | Weekly RP Attacks (All Attacks) Change from Baseline, Median [14]
−45.45%: Weekly RP Attacks (All Attacks) Percent Change from Baseline, Mean [7] | Weekly RP Attacks (All Attacks) Percent Change from Baseline, Median [7]
11.00: Weekly RP Attacks (All Attacks), Median [10] | Weekly RP Attacks (All Attacks), Median (Pooled Cilnidipine 20 mg and Cilnidipine 20 mg + Tadalafil 5 mg, Baseline RCS stratum 2 (lower half of table)) | Weekly RP Attacks (All Attacks), Median [11] | Weekly RP Attacks (All Attacks), Mean [12] | Weekly RP Attacks (All Attacks), Median [12] | Weekly RP Attacks (All Attacks), Median [13] | Weekly RP Attacks (All Attacks), Median [14] | Weekly RP Attacks (All Attacks), Median [15] | Weekly RP Attacks (All Attacks), Median [16] | Weekly RP Attacks (All Attacks), Median [17] | Weekly RP Attacks (All Attacks), Median [18]
13.00: Weekly RP Attacks (All Attacks), Mean [15] | Weekly RP Attacks (All Attacks), Mean [16] | Weekly RP Attacks (All Attacks), Mean [17] | Weekly RP Attacks (All Attacks), Mean [18]
−33.03%: Weekly RP Attacks (All Attacks) Percent Change from Baseline, Median [13] | Weekly RP Attacks (All Attacks) Percent Change from Baseline, Median [14]
−6.50: Weekly RP Attacks (All Attacks) Change from Baseline, Mean [6] | Weekly RP Attacks (All Attacks) Change from Baseline, Median [6]
14.00: Weekly RP Attacks (All Attacks), Mean [6] | Weekly RP Attacks (All Attacks), Median [6]
